# Source: patent EP0908457B1, “3-(1,2-benzisothiazol- and isoxazol-5-Y1)-2,4(1H,3H)-pyrimidinedione or thione and 3-(1,2-benzisothiazol- and isoxazol-5-y1)-4(3H)-pyrimidinone or thione herbicidal agents” (BASF AKTIENGESELLSCHAFT, priority 1997, dated 1999)
# Key:
# Cyperus iria = assay: Preemergence weed control under flooded paddy conditions, CYPIR (Rice Flatsedge); assay type: in vivo; conditions: flooded paddy, rated three to four weeks after treatment; as to herbicidal effect rating, CYPIR: meaning of each grade not given here
# [1] = tested on: Monochoria vaginalis, Presl.; assay: Preemergence weed control under flooded paddy conditions, MOOVA (Monochoria); assay type: in vivo; conditions: flooded paddy, rated three to four weeks after treatment; as to herbicidal effect rating, MOOVA: meaning of each grade not given here
# [2] = tested on: Oryza sativa, (L.) Tebonnet; assay: Rice tolerance to post-transplant applications under flooded paddy conditions (Example 187), ORYSAT (Rice, Tebonnet); conditions: rated three to four weeks after treatment
# [3] = tested on: Cyperus serotinus, Rottb.; assay: Preemergence weed control under flooded paddy conditions, CYPSE (Flatsedge); assay type: in vivo; conditions: rated three to four weeks after treatment; as to herbicidal effect rating, CYPSE: meaning of each grade not given here
# Sagittaria pygmaea, L. = assay: Preemergence weed control under flooded paddy conditions, SAGPY (Arrowhead (Pygmaea)); assay type: in vivo; conditions: flooded paddy, rated three to four weeks after treatment; as to herbicidal effect rating, SAGPY: meaning of each grade not given here
# [4] = tested on: Echinochloa oryzoides (Ard.) Fritsch.; assay: Preemergence weed control under flooded paddy conditions, ECHORC (Watergrass (Calif.)); assay type: in vivo; conditions: flooded paddy, rated three to four weeks after treatment; as to herbicidal effect rating, ECHORC: meaning of each grade not given here
# [5] = Rate 0.0320 kg/ha, preemergence
# [6] = Rate 0.0620 kg/ha, preemergence
# [7] = Rate 0.1250 kg/ha, preemergence
# [8] = Rate 0.2500 kg/ha, preemergence
# [9] = Rate 0.0313 kg/ha, preemergence
# [10] = Rate 0.0625 kg/ha, preemergence
# [11] = 0.0315 kg/ha, preemergence weeds
# [12] = 0.0630 kg/ha, preemergence weeds
# [13] = 0.0313 kg/ha, preemergence weeds
# [14] = 0.0625 kg/ha, preemergence weeds
# [15] = 0.1250 kg/ha, preemergence weeds
# [16] = 0.2500 kg/ha, preemergence weeds
compound,measurement,setting,value
"Cc1ccc(OC(C)(C)C(=O)NS(C)(=O)=O)c(-c2nsc3ccc(-n4c(=O)cc(C(F)(F)F)n(C)c4=O)cc23)c1 [Example 576, Propionamide, 2-{{2-{5-[3,6-dihydro-3-methyl-2,6-dioxo-4-(trifluoromethyl)-1(2H)-pyrimidinyl]-1,2-benzisothiazol-3-yl}-p-tolyl}oxy}-2-methyl-N-(methylsulfonyl)-]","herbicidal effect rating, CYPIR",Cyperus iria; [5],0.0
same,"herbicidal effect rating, CYPIR",Cyperus iria; [6],3.0
same,"herbicidal effect rating, CYPIR",Cyperus iria; [7],3.0
same,"herbicidal effect rating, CYPIR",Cyperus iria; [8],5.0
same,"herbicidal effect rating, MOOVA",[1]; [5],7.0
same,"herbicidal effect rating, MOOVA",[1]; [6],9.0
same,"herbicidal effect rating, MOOVA",[1]; [7],9.0
same,"herbicidal effect rating, MOOVA",[1]; [8],9.0
same,herbicidal effect rating ORYSAT,[2]; Rate 0.0320 kg/ha,4.0
same,herbicidal effect rating ORYSAT,[2]; Rate 0.0620 kg/ha,7.0
same,herbicidal effect rating ORYSAT,[2]; Rate 0.1250 kg/ha,7.0
same,herbicidal effect rating ORYSAT,[2]; Rate 0.2500 kg/ha,9.0
same,"herbicidal effect rating, CYPSE",[3]; [5],0.0
same,"herbicidal effect rating, CYPSE",[3]; [6],0.0
same,"herbicidal effect rating, CYPSE",[3]; [7],0.0
same,"herbicidal effect rating, CYPSE",[3]; [8],4.0
same,"herbicidal effect rating, SAGPY","Sagittaria pygmaea, L.; [5]",0.0
same,"herbicidal effect rating, SAGPY","Sagittaria pygmaea, L.; [6]",0.0
same,"herbicidal effect rating, SAGPY","Sagittaria pygmaea, L.; [7]",3.0
same,"herbicidal effect rating, SAGPY","Sagittaria pygmaea, L.; [8]",4.0
same,"herbicidal effect rating, ECHORC",[4]; [5],6.0
same,"herbicidal effect rating, ECHORC",[4]; [6],7.0
same,"herbicidal effect rating, ECHORC",[4]; [7],7.0
same,"herbicidal effect rating, ECHORC",[4]; [8],9.0
"CC(C#N)c1nsc2ccc(-n3c(=O)cc(C(F)(F)F)n(C)c3=O)cc12 (stereo not drawn) [Example 583, 1,2-Benzisothiazole-3-acetonitrile, 5-[3,6-dihydro-3-methyl-2,6-dioxo-4-(trifluoromethyl)-1(2H)-pyrimidinyl]-alpha-methyl-]","herbicidal effect rating, CYPIR",Cyperus iria; [5],9.0
same,"herbicidal effect rating, CYPIR",Cyperus iria; [6],9.0
same,"herbicidal effect rating, CYPIR",Cyperus iria; [7],9.0
same,"herbicidal effect rating, CYPIR",Cyperus iria; [8],9.0
same,"herbicidal effect rating, MOOVA",[1]; [5],6.0
same,"herbicidal effect rating, MOOVA",[1]; [6],9.0
same,"herbicidal effect rating, MOOVA",[1]; [7],9.0
same,"herbicidal effect rating, MOOVA",[1]; [8],9.0
same,herbicidal effect rating ORYSAT,[2]; Rate 0.0320 kg/ha,5.0
same,herbicidal effect rating ORYSAT,[2]; Rate 0.0620 kg/ha,7.0
same,herbicidal effect rating ORYSAT,[2]; Rate 0.1250 kg/ha,9.0
same,herbicidal effect rating ORYSAT,[2]; Rate 0.2500 kg/ha,9.0
same,"herbicidal effect rating, CYPSE",[3]; [5],8.5
same,"herbicidal effect rating, CYPSE",[3]; [6],9.0
same,"herbicidal effect rating, CYPSE",[3]; [7],9.0
same,"herbicidal effect rating, CYPSE",[3]; [8],9.0
same,"herbicidal effect rating, SAGPY","Sagittaria pygmaea, L.; [5]",9.0
same,"herbicidal effect rating, SAGPY","Sagittaria pygmaea, L.; [6]",9.0
same,"herbicidal effect rating, SAGPY","Sagittaria pygmaea, L.; [7]",9.0
same,"herbicidal effect rating, SAGPY","Sagittaria pygmaea, L.; [8]",9.0
same,"herbicidal effect rating, ECHORC",[4]; [5],3.0
same,"herbicidal effect rating, ECHORC",[4]; [6],7.5
same,"herbicidal effect rating, ECHORC",[4]; [7],9.0
same,"herbicidal effect rating, ECHORC",[4]; [8],9.0
"C#CCn1c(C(F)(F)F)cc(=O)n(-c2ccc3snc(C)c3c2)c1=O [Example 217, 3-(3-Methyl-1,2-benzisothiazol-5-yl)-1-(2-propynyl)-6-(trifluoromethyl)-2,4(1H,3H)-pyrimidinedione]",CYPIR herbicidal effect rating,Cyperus iria; [9],0.0
same,CYPIR herbicidal effect rating,Cyperus iria; [10],0.0
same,CYPIR herbicidal effect rating,Cyperus iria; [7],0.0
same,CYPIR herbicidal effect rating,Cyperus iria; [8],0.0
same,MOOVA herbicidal effect rating,[1]; [9],2.0
same,MOOVA herbicidal effect rating,[1]; [10],4.0
same,MOOVA herbicidal effect rating,[1]; [7],7.0
same,MOOVA herbicidal effect rating,[1]; [8],7.0
same,ORYSAT herbicidal effect rating,[2]; Rate 0.0313 kg/ha,2.0
same,ORYSAT herbicidal effect rating,[2]; Rate 0.0625 kg/ha,2.0
same,ORYSAT herbicidal effect rating,[2]; Rate 0.1250 kg/ha,3.0
same,ORYSAT herbicidal effect rating,[2]; Rate 0.2500 kg/ha,4.0
same,CYPSE herbicidal effect rating,[3]; [9],0.0
same,CYPSE herbicidal effect rating,[3]; [10],0.0
same,CYPSE herbicidal effect rating,[3]; [7],0.0
same,CYPSE herbicidal effect rating,[3]; [8],0.0
same,SAGPY herbicidal effect rating,"Sagittaria pygmaea, L.; [9]",0.0
same,SAGPY herbicidal effect rating,"Sagittaria pygmaea, L.; [10]",0.0
same,SAGPY herbicidal effect rating,"Sagittaria pygmaea, L.; [7]",0.0
same,SAGPY herbicidal effect rating,"Sagittaria pygmaea, L.; [8]",0.0
same,ECHORC herbicidal effect rating,[4]; [9],0.0
same,ECHORC herbicidal effect rating,[4]; [10],0.0
same,ECHORC herbicidal effect rating,[4]; [7],0.0
same,ECHORC herbicidal effect rating,[4]; [8],0.0
"C=C(C)C1CC=C(COCc2nsc3ccc(-n4c(=O)ccn(C)c4=O)cc23)CC1 (stereo not drawn) [Example 211, 1-Methyl-3-{3-{{[4-(1-methylvinyl)-1-cyclohexen-1-yl]methoxy}methyl}-1,2-benzisothiazol-5-yl}-2,4(1H,3H)-pyrimidinedione]",CYPIR herbicidal effect rating,Cyperus iria; [9],0.0
same,CYPIR herbicidal effect rating,Cyperus iria; [10],0.0
same,CYPIR herbicidal effect rating,Cyperus iria; [7],4.0
same,CYPIR herbicidal effect rating,Cyperus iria; [8],4.0
same,MOOVA herbicidal effect rating,[1]; [9],9.0
same,MOOVA herbicidal effect rating,[1]; [10],9.0
same,MOOVA herbicidal effect rating,[1]; [7],9.0
same,MOOVA herbicidal effect rating,[1]; [8],9.0
same,ORYSAT herbicidal effect rating,[2]; Rate 0.0313 kg/ha,2.0
same,ORYSAT herbicidal effect rating,[2]; Rate 0.0625 kg/ha,2.0
same,ORYSAT herbicidal effect rating,[2]; Rate 0.1250 kg/ha,2.0
same,ORYSAT herbicidal effect rating,[2]; Rate 0.2500 kg/ha,3.0
same,CYPSE herbicidal effect rating,[3]; [9],0.0
same,CYPSE herbicidal effect rating,[3]; [10],0.0
same,CYPSE herbicidal effect rating,[3]; [7],0.0
same,CYPSE herbicidal effect rating,[3]; [8],0.0
same,SAGPY herbicidal effect rating,"Sagittaria pygmaea, L.; [9]",0.0
same,SAGPY herbicidal effect rating,"Sagittaria pygmaea, L.; [10]",0.0
same,SAGPY herbicidal effect rating,"Sagittaria pygmaea, L.; [7]",0.0
same,SAGPY herbicidal effect rating,"Sagittaria pygmaea, L.; [8]",0.0
same,ECHORC herbicidal effect rating,[4]; [9],2.0
same,ECHORC herbicidal effect rating,[4]; [10],4.0
same,ECHORC herbicidal effect rating,[4]; [7],7.0
same,ECHORC herbicidal effect rating,[4]; [8],9.0
"C=CC(C)OC(=O)COc1ccc(C)cc1-c1nsc2ccc(-n3c(=O)cc(C(F)(F)F)n(C)c3=O)cc12 (stereo not drawn) [Example 186, 1-Methylallyl {{2-{5-[3,6-dihydro-3-methyl-2,6-dioxo-4-(trifluoromethyl)-1(2H)-pyrimidinyl]-1,2-benzisothiazol-3-yl}-p-tolyl}oxy}acetate]","herbicidal effect rating, CYPIR",Cyperus iria; [11],9.0
same,"herbicidal effect rating, CYPIR",Cyperus iria; [12],9.0
same,"herbicidal effect rating, MOOVA",[1]; [11],9.0
same,"herbicidal effect rating, MOOVA",[1]; [12],9.0
same,"herbicidal effect rating, ORYSAT (rice tolerance)",[2]; 0.0315 kg/ha,9.0
same,"herbicidal effect rating, ORYSAT (rice tolerance)",[2]; 0.0630 kg/ha,9.0
same,"herbicidal effect rating, CYPSE",[3]; [11],9.0
same,"herbicidal effect rating, CYPSE",[3]; [12],9.0
same,"herbicidal effect rating, SAGPY","Sagittaria pygmaea, L.; [11]",9.0
same,"herbicidal effect rating, SAGPY","Sagittaria pygmaea, L.; [12]",9.0
same,"herbicidal effect rating, ECHORC",[4]; [11],9.0
same,"herbicidal effect rating, ECHORC",[4]; [12],9.0
"Cn1c(C(F)(F)F)cc(=O)n(-c2ccc3snc(C(CCl)CCl)c3c2)c1=O [Example 199, 3-{3-[2-Chloro-1-(chloromethyl)ethyl]-1,2-benzisothiazol-5-yl}-1-methyl-6-(trifluoromethyl)-2,4(1H,3H)-pyrimidinedione]","herbicidal effect rating, CYPIR",Cyperus iria; [13],0.0
same,"herbicidal effect rating, CYPIR",Cyperus iria; [14],2.0
same,"herbicidal effect rating, CYPIR",Cyperus iria; [15],4.0
same,"herbicidal effect rating, CYPIR",Cyperus iria; [16],8.0
same,"herbicidal effect rating, MOOVA",[1]; [13],8.0
same,"herbicidal effect rating, MOOVA",[1]; [14],9.0
same,"herbicidal effect rating, MOOVA",[1]; [15],9.0
same,"herbicidal effect rating, MOOVA",[1]; [16],9.0
same,"herbicidal effect rating, ORYSAT (rice tolerance)",[2]; 0.0313 kg/ha,3.0
same,"herbicidal effect rating, ORYSAT (rice tolerance)",[2]; 0.0625 kg/ha,4.0
same,"herbicidal effect rating, ORYSAT (rice tolerance)",[2]; 0.1250 kg/ha,6.0
same,"herbicidal effect rating, ORYSAT (rice tolerance)",[2]; 0.2500 kg/ha,8.0
same,"herbicidal effect rating, CYPSE",[3]; [13],0.0
same,"herbicidal effect rating, CYPSE",[3]; [14],0.0
same,"herbicidal effect rating, CYPSE",[3]; [15],0.0
same,"herbicidal effect rating, CYPSE",[3]; [16],0.0
same,"herbicidal effect rating, SAGPY","Sagittaria pygmaea, L.; [13]",0.0
same,"herbicidal effect rating, SAGPY","Sagittaria pygmaea, L.; [14]",0.0
same,"herbicidal effect rating, SAGPY","Sagittaria pygmaea, L.; [15]",0.0
same,"herbicidal effect rating, SAGPY","Sagittaria pygmaea, L.; [16]",0.0
same,"herbicidal effect rating, ECHORC",[4]; [13],2.0
same,"herbicidal effect rating, ECHORC",[4]; [14],4.0
same,"herbicidal effect rating, ECHORC",[4]; [15],7.0
same,"herbicidal effect rating, ECHORC",[4]; [16],7.0
